From patent US20120142771A1, “BIPHENYLACETAMIDE DERIVATIVE” (Dainippon Sumitomo Pharma Co., Ltd., priority 2008, published 2012)

Experiments:
Format in all cases: in vivo, mice
[1] = system: 6 Hz psychomotor seizure model; test: 6 Hz psychomotor seizure model; conditions: mice; for 6 Hz (Positive number/tested number): dose 100 mg/kg, 30 minutes or 1 hour after administration
Procedure: Test 4: Test of 6 Hz Psychomotor Seizure Model
Similar to Tests 1 and 2, Test 4 evaluates the anticonvulsant action of medicaments. However, unlike Tests 1 and 2, the animal model used herein represents clinical phenotypes of seizures resistant to existing antiepileptic drugs. […] After 30 minutes or an hour of administration, their corneas were electrically stimulated (6 Hz, 32 mA, 3 seconds) to induce symptoms of myoclonus in their forelimbs, Straub tail, and immobility. […] To the control mice, 0.5% tragacanth solution, 0.5% methylcellulose solution, or olive oil was administered.

[2] = system: maximum electroshock seizure (MES) model; test: Maximum electroshock seizure (MES) model test; conditions: for responders at 50 mg/kg / responders at 100 mg/kg: Mus musculus, po, 1 h, read-out: MES (positive number/tested number) (converted); for responders at 50 mg/kg / responders at 100 mg/kg / MES (positive number/tested number): Slc: ddY male mice, 3 per group, electrical stimulation 1 hour after administration, inhibition of hind limb extension; for anticonvulsant action in maximum electroshock seizure (MES) model test: mice, oral 50 or 100 mg/kg, 1 hour after administration
How it was run: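 Male Slc: ddY mice (3 per group, 20-30 g) received compound orally at 50 or 100 mg/kg; controls got 0.5% tragacanth or 0.5% methylcellulose. One hour post-dose, corneal stimulation (60 Hz, 25 mA, 0.2 s) induced tonic hind-limb extensor convulsion.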

[3] = system: subcutaneously pentetrazol-injected model (scPTZ); test: Subcutaneously pentetrazol-injected model (scPTZ) test; conditions: pentetrazol 85 mg/kg s.c. after 1 hour; for responders at 50 mg/kg / responders at 100 mg/kg: Mus musculus, po, 1 h, read-out: scPTZ (positive number/tested number) (converted); for responders at 50 mg/kg / responders at 100 mg/kg / scPTZ (positive number/tested number): Slc: ddY male mice, 3 per group, observed 30 minutes for clonic convulsion; for anticonvulsant action in subcutaneously pentetrazol-injected model (scPTZ) test: mice, oral 50 or 100 mg/kg
How it was run: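 Male Slc:ddY mice (20-30 g, 3 per group) dosed orally at 50 or 100 mg/kg; pentetrazol 85 mg/kg given subcutaneously 1 h later. Controls received 0.5% tragacanth or 0.5% methylcellulose vehicle.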

SMILES	responders at 50 mg/kg ([2]; 50 mg/kg oral)	responders at 100 mg/kg ([2]; 100 mg/kg oral)	responders at 50 mg/kg ([3]; 50 mg/kg oral)	responders at 100 mg/kg ([3]; 100 mg/kg oral)	other results
NC(=O)C(O)c1ccccc1-c1cc(F)ccc1Cl (stereo not shown) [Example 185, 2-(2′-chloro-5′-fluorobiphenyl-2-yl)-2-hydroxyacetamide]	66.7%	100%	66.7%	100%	efficacy in 6 Hz psychomotor seizure model ([1]; oral administration at a dose of 100 mg/kg): potent efficacy; 6 Hz (Positive number/tested number) ([1]; oral): 5/5/100; anticonvulsant action in maximum electroshock seizure (MES) model test [2]: anticonvulsant action was observed; anticonvulsant action in subcutaneously pentetrazol-injected model (scPTZ) test [3]: anticonvulsant action was observed
NC(=O)C(O)c1ccccc1-c1ccccc1 (stereo not shown) [Example 59, 2-(Biphenyl-2-yl)-2-hydroxyacetamide]	100%	100%	0%	66.7%	ED50 ([1]; Mus musculus, 6 Hz psychomotor seizure model, oral, read-out: ED50): 91.5 mg/kg; 6 Hz (Positive number/tested number) ([1]; oral): 7/10/100
NC(=O)Cc1ccccc1-c1cccc(Br)c1 [Example 52, 2-(3′-bromobiphenyl-2-yl)acetamide]	66.7%	100%	33.3%	66.7%	6 Hz (Positive number/tested number) ([1]; oral): 1/5/100
NC(=O)Cc1c(F)cccc1-c1ccccc1 [Example 118, 2-(3-fluorobiphenyl-2-yl)acetamide]	100%	100%		33.3%	
NC(=O)Cc1ccccc1-c1cccc(F)c1F [Example 20, 2-(2′,3′-difluorobiphenyl-2-yl)acetamide]	66.7%	100%	66.7%	66.7%	anticonvulsant action in maximum electroshock seizure (MES) model test [2]: anticonvulsant action was observed; anticonvulsant action in subcutaneously pentetrazol-injected model (scPTZ) test [3]: anticonvulsant action was observed
CCNC(=O)Cc1ccccc1-c1cccc(F)c1 [Example 27]	0%	100%		33.3%	
CNC(=O)C(F)c1ccccc1-c1ccc(F)cc1 (stereo not shown) [Example 166, 2-fluoro-2-(4′-fluorobiphenyl-2-yl)-N-methylacetamide]	66.7%	100%	33.3%	66.7%	
NC(=O)C(F)(F)c1ccccc1-c1ccccc1 [Example 174, 2-(biphenyl-2-yl)-2,2-difluoroacetamide]	100%	100%	33.3%	66.7%	
NC(=O)Cc1ccccc1-c1ccc(Cl)cc1 [Example 10]	33.3%	100%		33.3%	
NC(=O)Cc1cc(F)c(F)cc1-c1ccccc1 [Example 110]	0%	66.7%		33.3%	
NC(=O)Cc1ccc(Cl)cc1-c1cccc(Cl)c1 [Example 127]		66.7%		33.3%	
NC(=O)Cc1ccc(F)cc1-c1ccc(F)cc1 [Example 122]		0%	0%	66.7%	
NC(=O)C1(c2ccccc2-c2cccc(F)c2)CC1 [Example 158]		0%		66.7%	
CN(C)C(=O)Cc1cc(Cl)ccc1-c1ccccc1F [Example 38]		0%	0%	100%	
O=C(Cc1ccccc1-c1ccccc1F)NC1CC1 [Example 172]		100%		0%	
Cc1ccc(-c2ccccc2)c(CC(N)=O)c1 [Example 111]		0%	33.3%	66.7%	
CNC(=O)C(OC)c1ccccc1-c1ccc(F)cc1 (stereo not shown) [Example 204]	0%	100%		0%	
CNC(=O)Cc1ccccc1-c1ccccc1C(F)(F)F [Example 7, N-methyl-2-[2′-(trifluoromethyl)biphenyl-2-yl]acetamide]	66.7%	100%	0%	66.7%	

SMILES	responders at 50 mg/kg ([2]; 50 mg/kg oral)	responders at 100 mg/kg ([2]; 100 mg/kg oral)	responders at 50 mg/kg ([3]; 50 mg/kg oral)	responders at 100 mg/kg ([3]; 100 mg/kg oral)	other results
CNC(=O)Cc1ccccc1-c1ccc(Cl)cc1 [Example 11]	0%	100%		33.3%	
NC(=O)Cc1ccccc1-c1cc(F)c(F)cc1F [Example 69]		33.3%		66.7%	
NC(=O)Cc1ccccc1-c1cccc(Cl)c1F [Example 85]		100%		33.3%	
NC(=O)Cc1cc(C(F)(F)F)ccc1-c1cccc(F)c1 [Example 144]		33.3%		66.7%	
CNC(=O)Cc1ccc(F)cc1-c1cc(Cl)cc(Cl)c1 [Example 151]		66.7%		0%	
CNC(=O)Cc1cc(Cl)ccc1-c1ccc(C(F)(F)F)cc1 [Example 143]		0%		100%	
CNC(=O)Cc1cc(C(F)(F)F)ccc1-c1ccccc1 [Example 117]		0%	33.3%	66.7%	
CNC(=O)Cc1ccccc1-c1cccc(OC(F)(F)F)c1 [Example 99, N-methyl-2-[3′-(trifluoromethoxy)biphenyl-2-yl]acetamide]	66.7%	100%		33.3%	
CN(C)C(=O)Cc1ccccc1-c1ccc(F)cc1 [Example 24]	33.3%	100%		0%	
COC(C(N)=O)c1ccccc1-c1ccccc1F (stereo not shown) [Example 200, 2-(2′-fluorobiphenyl-2-yl)-2-methoxyacetamide]	0%	100%	33.3%	66.7%	
CNC(=O)Cc1ccccc1-c1ccccc1Cl [Example 17]		0%		33.3%	
NC(=O)C(O)c1ccccc1-c1ccccc1F (single isomer, unassigned) [Example 213, 2-(2′-Fluorobiphenyl-2-yl)-2-hydroxyacetamide]		100%		33.3%	MES (positive number/tested number) ([2]; 50 mg/kg oral): 0/3
NC(=O)C(O)c1ccccc1-c1ccccc1F (single isomer, unassigned) [Example 214, 2-(2′-Fluorobiphenyl-2-yl)-2-hydroxyacetamide]					MES (positive number/tested number) ([2]; 50 mg/kg oral): 2/3; MES (positive number/tested number) ([2]; 100 mg/kg oral): 3/3; scPTZ (positive number/tested number) ([3]; 100 mg/kg oral): 1/3
CNC(=O)C(F)c1ccccc1-c1ccccc1F (stereo not shown) [Example 165, 2-fluoro-2-(2′-fluorobiphenyl-2-yl)-N-methylacetamide]	66.7%	100%		33.3%	
NC(=O)C(F)c1ccccc1-c1ccccc1F (stereo not shown) [Example 164, 2-fluoro-2-(2′-fluorobiphenyl-2-yl)acetamide]	100%	100%		33.3%	
NC(=O)C(O)c1ccccc1-c1cc(F)c(F)c(F)c1 (stereo not shown) [Example 193, 2-hydroxy-2-(3′,4′,5′-trifluorobiphenyl-2-yl)acetamide]	100%	100%	100%	66.7%	
NC(=O)[C@@H](O)c1ccccc1-c1cc(Cl)cc(Cl)c1 [Example 216, 2-(3′,5′-dichlorobiphenyl-2-yl)-2S-hydroxyacetamide]					MES (positive number/tested number) ([2]; 50 mg/kg oral): 1/3; MES (positive number/tested number) ([2]; 100 mg/kg oral): 2/3; scPTZ (positive number/tested number) ([3]; 50 mg/kg oral): 1/3; scPTZ (positive number/tested number) ([3]; 100 mg/kg oral): 1/3
CNC(=O)Cc1ccccc1-c1cccc(F)c1 [Example 26, 2-(3′-fluorobiphenyl-2-yl)-N-methylacetamide]	100%	100%		0%	
